From patent publication US10870876B2, “Method for detecting a presence or absence of at least one first zone of inhibition” (BIOMÉRIEUX, priority 2015, dated 2020)
In brackets after ≈: the same amount, converted by molar mass.

Columns and labels:
Format in all cases: cell-based
[1] = tested on: Escherichia coli ATCC 35218; test: Etest strip MIC, conventional method by flooding of the medium; set-up: key: R = resistant
Procedure: (§1) Another method for detecting sensitivity to antibiotics uses an antibiotic gradient deposited on an agar medium. For this purpose, paper or plastic strips are impregnated with a concentration gradient of antibiotic. The strips soaked in this way are graduated so as to indicate the antibiotic concentration values present along the strip. One or more strips may be placed on a Mueller-Hinton agar, inoculated beforehand in the same way as the above method. After incubation, an ovoid area of inhibition of microbial growth around each strip appears if the microorganism present in the sample is sensitive to the antibiotic contained in the strip. It is thus possible to deduce a minimum inhibitory concentration (MIC) for microbial growth. The minimum concentration of the antimicrobial agent which makes it possible to inhibit the growth of the microorganism which is generally retained is thus the value of the concentration which can be read on the graduation directly below the point of contact between the zone of inhibition and the long edge of the strip. In other words, the MIC is the concentration visible at the limit of the zone of inhibition, at the boundary between the zone of growth of the microorganisms and the zone of non-growth. More particularly, the MIC can be read by noting the point at which the ovoid area of the zone of inhibition intersects the strip, and by noting the corresponding graduation.
(§2) According to a first experiment of this example, an inoculum of a strain of Escherichia coli ATCC 35218 (American Type Culture Collection) having a concentration of 0.5 McFarland is thus deposited in droplets along four Etest® strips (bioMérieux), each deposited on a Mueller Hinton E agar culture medium (bioMérieux). The strips contain respectively a concentration gradient of gentamicin, tetracycline, ampicillin/sulbactam, ampicillin. In the same manner, an inoculum of a strain of Escherichia coli ATCC 25922 having a concentration of 0.5 McFarland is deposited in droplets along four Etest® strips (bioMérieux), each deposited on a Mueller Hinton E agar culture medium (bioMérieux). The strips also contain a concentration gradient of gentamicin, tetracycline, ampicillin/sulbactam, ampicillin.
(§3) The values are given in μg/ml at different incubation times. The inhibition values for the flooding method are measured from images obtained by a shadowgraphy capture device as described above. The inhibition values for the method according to the invention are measured from images obtained by a shadowgraphy capture device at 5 hours, and visually at 7 hours.

[2] = tested on: Escherichia coli ATCC 35218; test: Etest strip MIC, deposition of the sample in droplets along the strip; set-up: key to minimum inhibitory concentration / MIC: R = resistant
Excerpt: (§4) FIGS. 8a to 8d and 9a to 9d illustrate this second example of implementation of the invention. According to FIG. 8a, a sample 1 is deposited in the form of a series of droplets, along an axis parallel to the long edge of a strip 3 containing a concentration gradient of chemical agent. The strip 3 comprises graduations of concentrations of chemical agent 13, making it possible to deduce a minimum inhibitory concentration of chemical agent. An example of such a strip is sold by the applicant under the trade name Etest®. According to the FIG. 8b, a strip 3 containing a chemical agent 5 is deposited on a culture medium 2 contained in a Petri dish 4 (for example a Petri dish with a diameter greater than or equal to 9 cm). The detail B in FIG. 8b is visible in FIG. 8c. A sample 1 is deposited in the form of a series of droplets in a deposition zone 8 along an axis 7 parallel to the long edge of the strip 3. In this example, 13 nanoliter drops are deposited by a Pipejet P9 Nanodispenser pipette sold by the company biofluidix and mounted on a robotic arm. The detail C in FIG. 8c is visible in FIG. 8d. 50 droplets are thus deposited along the axis 7 with an interval P of 800 μm. Each droplet covers a surface area of approximately 1 mm^2.
as §2
(§5) Fifty droplets, each with a volume of 13 nanoliters and spaced apart by 800 μm, are deposited along each strip. As a function of the concentration of 0.5 McFarland, it is thus estimated that approximately 2000 bacteria are present in each droplet. The eight culture media prepared in this way are then incubated and monitored periodically in order to determine the presence or the absence of a zone of inhibition and/or of growth of the microorganisms.
FIGS. 9a to 9d illustrate a plan view of the four media in which the sample of Escherichia coli ATCC 35218 was deposited. FIGS. 9a to 9d are obtained by means of a shadowgraphy capture device as presented in relation to FIG. 5. FIG. 9a presents a view after 5 hours of incubation of the sample in the presence of gentamicin. […] A minimum inhibitory concentration value is then obtained at the intersection between the straight line 14 and the long edge of the strip. A minimum inhibitory concentration (MIC) of 2 μg/ml is thus determined.
Advantageously, a straight line or an arc 15 delimiting the boundary of the zone of growth of microorganisms and the zone of inhibition may be sought, this straight line not necessarily being perpendicular to the long edge and thus reproducing said boundary more faithfully. This straight line or this arc corresponds to a portion of the ovoid area of inhibition observed with conventional inoculation methods and therefore enables better estimation of the MIC. In the case in which a straight line or an arc 15 is sought, the minimum inhibitory concentration may be obtained by tracing a line perpendicular to the long edge of the strip, crossing the point of intersection between the straight line 15 and the axis of deposition of the sample 7, then by seeking the graduation corresponding to this perpendicular line on the strip. […]

[3] = tested on: Escherichia coli ATCC 25922; test: Etest strip MIC, conventional method by flooding of the medium; details: for MIC: Escherichia coli, ATCC25922, ATCC 25922, 0.5 McFarland, read-out: minimum inhibitory concentration; for minimum inhibitory concentration: ATCC 25922, 0.5 McFarland
Procedure: as §1, §2, §3

[4] = tested on: Escherichia coli ATCC 25922; test: Etest strip MIC, deposition of the sample in droplets along the strip; details: for MIC: Escherichia coli, ATCC25922, ATCC 25922, 0.5 McFarland, read-out: minimum inhibitory concentration; for minimum inhibitory concentration: ATCC 25922, 0.5 McFarland
Excerpt: as §4, §2, §5
as §3, with “The minimum inhibitory concentration results obtained for the strains of Escherichia coli ATCC 35218 and also the strains of Escherichia coli ATCC 25922 are compared with the conventional method by flooding of the medium in table 1 below. The values” for “The values”

[5] = Flooding, ATCC 35218, 0.5 McFarland, incubation time 6 H
[6] = Flooding, ATCC 35218, 0.5 McFarland, incubation time 8 H
[7] = Table 2, flooding, ATCC 35218, 28 H
[8] = Deposition in droplets, ATCC 35218, 0.5 McFarland, incubation time 5 H (shadowgraphy)
[9] = Deposition in droplets, ATCC 35218, 0.5 McFarland, incubation time 7 H (visual)
[10] = Escherichia coli, ATCC35218, droplets of 13 nanoliters, ATCC 35218 at 0.5 McFarland, after 5 hours of incubation, shadowgraphy (FIGS. 9a-9d), read-out: minimum inhibitory concentration (MIC)
[11] = Table 2, droplet (replicate 1 where replicated), ATCC 35218, 0.5 McF, 5 H
[12] = Table 2, droplet (replicate 1 where replicated), ATCC 35218, 0.5 McF, 7 H
[13] = incubation time 5 H (shadowgraphy)

With `CC1(C)S[C@@H]2[C@H](NC(=O)[C@H](N)c3ccccc3)C(=O)N2[C@H]1C(=O)O` [Ampicillin, ampicillin] the minimum inhibitory concentration [1, 5] was “R”, the minimum inhibitory concentration [1, 6] was “R” and the minimum inhibitory concentration ([1]; Flooding, ATCC 35218, 0.5 McFarland, incubation time 18 H) was “R”. The MIC [1, 7] was “R”, the minimum inhibitory concentration [2, 8] was “R” and the minimum inhibitory concentration [2, 9] was “R”. The MIC [2, 10] was over 256 µg/mL, the MIC [2, 11] was “R” and the MIC [2, 12] was “R”. The MIC ([3]; incubation time 6 H) was 3.43 µg/mL (≈ 9.82 µM), the MIC ([3]; incubation time 8 H) was 5.21 µg/mL (≈ 14.9 µM) and the MIC ([3]; incubation time 18 H) was 5.69 µg/mL (≈ 16.3 µM). For the same compound, the MIC [4, 13] was 8 µg/mL (≈ 22.9 µM) and the MIC ([4]; incubation time 7 H (visual)) was 8 µg/mL (≈ 22.9 µM).
In the case of `CN(C)[C@@H]1C(O)=C(C(N)=O)C(=O)[C@@]2(O)C(O)=C3C(=O)c4c(O)cccc4[C@@](C)(O)[C@H]3C[C@@H]12` [Tetracycline, tetracycline], the MIC ([1]; Escherichia coli, ATCC35218, Flooding, ATCC 35218, 0.5 McFarland, incubation time 4 H, read-out: minimum inhibitory concentration) is reported as 0.44 µg/mL (≈ 0.99 µM), the MIC ([1]; Escherichia coli, ATCC35218, Flooding, ATCC 35218, 0.5 McFarland, incubation time 5 H, read-out: minimum inhibitory concentration) is reported as 0.86 µg/mL (≈ 1.94 µM) and the MIC ([1]; Escherichia coli, ATCC35218, Flooding, ATCC 35218, 0.5 McFarland, incubation time 6 H, read-out: minimum inhibitory concentration) is reported as 0.96 µg/mL (≈ 2.16 µM). The MIC ([1]; Escherichia coli, ATCC35218, Flooding, ATCC 35218, 0.5 McFarland, incubation time 8 H, read-out: minimum inhibitory concentration) was 1.12 µg/mL (≈ 2.51 µM), the MIC ([1]; Escherichia coli, ATCC35218, Flooding, ATCC 35218, 0.5 McFarland, incubation time 24 H, read-out: minimum inhibitory concentration) was 2.3 µg/mL (≈ 5.18 µM) and the MIC ([1]; Escherichia coli, ATCC35218, Table 2, flooding, ATCC 35218, 4 H, read-out: MIC) was 0.44 µg/mL (≈ 0.99 µM). It also gave an MIC ([1]; Escherichia coli, ATCC35218, Table 2, flooding, ATCC 35218, 5 H, read-out: MIC) of 0.86 µg/mL (≈ 1.94 µM), an MIC ([1]; Escherichia coli, ATCC35218, Table 2, flooding, ATCC 35218, 8 H, read-out: MIC) of 1.12 µg/mL (≈ 2.51 µM) and an MIC ([1]; Escherichia coli, ATCC35218, Table 2, flooding, ATCC 35218, 28 H, read-out: MIC) of 2.3 µg/mL (≈ 5.18 µM). The MIC ([1]; Escherichia coli, ATCC35218, Table 2, flooding, ATCC 35218, column 4 headed 8 H (between 5 H and 7 H), read-out: MIC) was 0.96 µg/mL (≈ 2.16 µM), the MIC ([2]; Escherichia coli, ATCC35218, Deposition in droplets, ATCC 35218, 0.5 McFarland, incubation time 5 H (shadowgraphy), read-out: minimum inhibitory concentration) was 1.5 µg/mL (≈ 3.38 µM) and the MIC ([2]; Escherichia coli, ATCC35218, Deposition in droplets, ATCC 35218, 0.5 McFarland, incubation time 7 H (visual), read-out: minimum inhibitory concentration) was 2 µg/mL (≈ 4.5 µM). It also gave an MIC ([2]; Escherichia coli, ATCC35218, Table 2, droplet (replicate 1 where replicated), ATCC 35218, 0.5 McF, 5 H, read-out: MIC) of 1.5 µg/mL (≈ 3.38 µM), an MIC ([2]; Escherichia coli, ATCC35218, Table 2, droplet (replicate 1 where replicated), ATCC 35218, 0.5 McF, 7 H, read-out: MIC) of 2 µg/mL (≈ 4.5 µM) and an MIC [2, 10] of 1.5 µg/mL (≈ 3.38 µM). It also gave an MIC ([3]; incubation time 4 H) of 0.3 µg/mL (≈ 0.675 µM), an MIC ([3]; incubation time 5 H) of 0.6 µg/mL (≈ 1.35 µM) and an MIC ([3]; incubation time 6 H) of 0.66 µg/mL (≈ 1.49 µM). It also gave an MIC ([3]; incubation time 8 H) of 0.86 µg/mL (≈ 1.94 µM), an MIC ([3]; incubation time 24 H) of 1.77 µg/mL (≈ 3.98 µM) and an MIC [4, 13] of 1.5 µg/mL (≈ 3.38 µM). For the same compound, the MIC ([4]; incubation time 7 H (visual)) was 2 µg/mL (≈ 4.5 µM).
For gentamicin, the minimum inhibitory concentration ([1]; Flooding, ATCC 35218, 0.5 McFarland, incubation time 4 H) was 0.96 µg/mL, the minimum inhibitory concentration ([1]; Flooding, ATCC 35218, 0.5 McFarland, incubation time 5 H) was 1.14 µg/mL and the minimum inhibitory concentration [1, 5] was 1.17 µg/mL. The minimum inhibitory concentration [1, 6] was 1.17 µg/mL, the minimum inhibitory concentration ([1]; Flooding, ATCC 35218, 0.5 McFarland, incubation time 24 H) was 1.06 µg/mL and the MIC ([1]; Table 2, flooding, ATCC 35218, 4 H) was 0.96 µg/mL. It also gave an MIC ([1]; Table 2, flooding, ATCC 35218, 5 H) of 1.14 µg/mL, an MIC [1, 7] of 1.06 µg/mL and a minimum inhibitory concentration [2, 8] of 2 µg/mL. For the same compound, the minimum inhibitory concentration [2, 9] was 2 µg/mL, the MIC [2, 11] was 2 µg/mL and the MIC [2, 12] was 2 µg/mL. The “minimum inhibitory concentration (MIC)” value ([2]; droplets of 13 nanoliters, ATCC 35218 at 0.5 McFarland, after 5 hours of incubation, shadowgraphy (FIGS. 9a-9d)) was 2 µg/mL, the minimum inhibitory concentration ([3]; incubation time 4 H) was 1.74 µg/mL and the minimum inhibitory concentration ([3]; incubation time 5 H) was 1.51 µg/mL. It also gave a minimum inhibitory concentration ([3]; incubation time 6 H) of 1.75 µg/mL, a minimum inhibitory concentration ([3]; incubation time 8 H) of 1.82 µg/mL and a minimum inhibitory concentration ([3]; incubation time 24 H) of 1.54 µg/mL. The minimum inhibitory concentration [4, 13] was 2 µg/mL and the minimum inhibitory concentration ([4]; incubation time 7 H (visual)) was 2 µg/mL.
